Legend:
CXCR3 = CXCR3 (Homo sapiens (Human), UniProt P49682); assay: Receptor internalization assay; format: cell-based; conditions: human whole blood; final CXCL10 concentration 9 nM; 30 min 37° C.; CXCR3 cell surface expression on CD3 positive cells, flow cytometer; read-out: Internalization IC50
Procedure: B): Receptor Internalization Assay:
Stock solutions of test compounds are made up at a concentration of 10 mM in DMSO, and serially diluted in PBS containing 0.5% BSA to concentrations required for inhibition dose response curves. Diluted compounds are then mixed with an equal volume of CXCL10 (Peprotech) diluted in PBS. Anticoagulated venous human whole blood is added to the mixture, which is then incubated in a CO2 incubator at 37° C. to allow for ligand mediated receptor internalization (final CXCL10 concentration is 9 nM). After 30′, the blood is mixed with fluorescently labeled CXCR3 and CD3 specific antibodies (Becton Dickinson) and incubated on ice for 10 minutes. Samples are then mixed with BD FACS Lysing Solution (Becton Dickinson) in order to eliminate red blood cells. After washing the cells with PBS containing 0.5% BSA, the samples are then analyzed in a flow cytometer (FACS Canto II, Becton Dickinson). For data analysis using FACSDiva software (Becton Dickinson), the mean fluorescence corresponding to CXCR3 cell surface expression was determined on CD3 positive cells. The program GraphPad Prism is used to fit the data to a single site dose response curve and to calculate IC50 values.

human CXCR3A = human CXCR3A (Homo sapiens (Human), UniProt P49682); assay: FLIPR assay; format: cell-based; conditions: CHO-K1 cells expressing the human CXCR3A coupled to Galpha(16); CXCL10 agonist 20 nM; Fluo-4-AM fluorescence; mean values if determined several times
Chain of human CXCR3A (P49682 whole entry): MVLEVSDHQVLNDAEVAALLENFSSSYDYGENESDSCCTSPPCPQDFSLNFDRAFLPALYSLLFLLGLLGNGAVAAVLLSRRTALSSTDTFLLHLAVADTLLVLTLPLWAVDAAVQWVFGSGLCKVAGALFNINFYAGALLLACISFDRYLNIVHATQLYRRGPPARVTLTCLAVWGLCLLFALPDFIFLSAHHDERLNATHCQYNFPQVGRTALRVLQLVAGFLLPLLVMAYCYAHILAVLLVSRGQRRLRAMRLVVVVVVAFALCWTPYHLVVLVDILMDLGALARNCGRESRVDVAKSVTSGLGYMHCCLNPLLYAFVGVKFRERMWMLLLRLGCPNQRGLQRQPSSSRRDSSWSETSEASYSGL
Summary of the method: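 CHO-K1 cells expressing CXCR3A coupled to Gα16 were loaded with Fluo-4-AM for 1 h in Hepes-buffered HBSS, pH 7.4, with 5 mM probenecid. Compound dilutions were added on the FLIPR, followed by CXCL10 (added as a 20 nM solution). Baseline-subtracted peak fluorescence was fitted to a single-site curve for IC50.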

Chain of CXCR3 (P49682 whole entry): as above

Row | IC50 (CXCR3) | IC50 (human CXCR3A) | Compound
1 | 3040 nM | 14 nM | C[C@@H]1CN(c2scnc2-c2nc3ccccc3[nH]2)CCN1C(=O)Cn1c(CO)cc2cccnc21 [Example 154, 1-{(R)-4-[4-(1H-Benzoimidazol-2-yl)-thiazol-5-yl]-2-methyl-piperazin-1-yl}-2-(2-hydroxymethyl-pyrrolo[2,3-b]pyridin-1-yl)-ethanone]
2 | 1510 nM | 9 nM | C[C@@H]1CN(c2sc(C3COC3)nc2-c2nc3ccccc3[nH]2)CCN1C(=O)Cn1cnc2cccnc21 [Example 113, 1-{(R)-4-[4-(1H-Benzoimidazol-2-yl)-2-oxetan-3-yl-thiazol-5-yl]-2-methyl-piperazin-1-yl}-2-imidazo[4,5-b]pyridin-3-yl-ethanone]
3 | 5310 nM | 8 nM | C[C@@H]1CN(c2sc(C(F)(F)F)nc2-c2nc3ccccc3[nH]2)CCN1C(=O)Cn1nccn1 [Example 197, 1-{(R)-4-[4-(1H-Benzoimidazol-2-yl)-2-trifluoromethyl-thiazol-5-yl]-2-methyl-piperazin-1-yl}-2-[1,2,3]triazol-2-yl-ethanone]
4 | 92 nM | 2 nM | C[C@@H]1CN(c2sc(C(F)(F)F)nc2-c2nc3ccc(CO)cc3[nH]2)CCN1C(=O)Cn1cnc2cccnc21 [Example 160, 1-{(R)-4-[4-(6-Hydroxymethyl-1H-benzoimidazol-2-yl)-2-trifluoromethyl-thiazol-5-yl]-2-methyl-piperazin-1-yl}-2-imidazo[4,5-b]pyridin-3-yl-ethanone]
5 | 685 nM | 0.3 nM | C[C@@H]1CN(c2sc(C(F)(F)F)nc2-c2nc3cccnc3[nH]2)CCN1C(=O)Cn1cnc2cccnc21 [Example 169, 2-Imidazo[4,5-b]pyridin-3-yl-1-{(R)-4-[4-(3H-imidazo[4,5-b]pyridin-2-yl)-2-trifluoromethyl-thiazol-5-yl]-2-methyl-piperazin-1-yl}-ethanone]
6 | 4490 nM | 24 nM | C[C@@H]1CN(c2sc(-c3ccccc3F)nc2-c2nc3ccccc3[nH]2)CCN1C(=O)Cn1cnc2cccnc21 [Example 148, 1-{(R)-4-[4-(1H-Benzoimidazol-2-yl)-2-(2-fluoro-phenyl)-thiazol-5-yl]-2-methyl-piperazin-1-yl}-2-imidazo[4,5-b]pyridin-3-yl-ethanone]
7 | 81 nM | 1 nM | C[C@@H]1CN(c2sc(C(F)(F)F)nc2-c2nc3ccccc3[nH]2)CCN1C(=O)CN1C(=O)Cc2ccccc21 [Example 103, 1-(2-{(R)-4-[4-(1H-Benzoimidazol-2-yl)-2-trifluoromethyl-thiazol-5-yl]-2-methyl-piperazin-1-yl}-2-oxo-ethyl)-1,3-dihydro-indol-2-one]
8 | 3430 nM | 5 nM | COc1cc2nc(-c3ncsc3N3CCN(C(=O)Cn4cnc5cccnc54)[C@H](C)C3)[nH]c2cc1OC [Example 158, 1-{(R)-4-[4-(5,6-Dimethoxy-1H-benzoimidazol-2-yl)-thiazol-5-yl]-2-methyl-piperazin-1-yl}-2-imidazo[4,5-b]pyridin-3-yl-ethanone]
9 | 93 nM | 1 nM | C[C@@H]1CN(c2sc(C(F)(F)F)nc2-c2nc3cc(OCCO)ccc3[nH]2)CCN1C(=O)Cn1cnc2cccnc21 [Example 164, 1-((R)-4-{4-[5-(2-Hydroxy-ethoxy)-1H-benzoimidazol-2-yl]-2-trifluoromethyl-thiazol-5-yl}-2-methyl-piperazin-1-yl)-2-imidazo[4,5-b]pyridin-3-yl-ethanone]
10 | 1400 nM | 8 nM | O=C(Cn1ccc2c(Cl)cccc21)N1CCN(c2scnc2-c2nc3ccccc3[nH]2)CC1 [Example 60, 1-{4-[4-(1H-Benzoimidazol-2-yl)-thiazol-5-yl]-piperazin-1-yl}-2-(4-chloro-indol-1-yl)-ethanone]
11 | 5070 nM | 16 nM | Cc1cccc(-c2nc(-c3nc4ccccc4[nH]3)c(N3CCN(C(=O)Cn4cnc5cccnc54)[C@H](C)C3)s2)c1 [Example 149, 1-{(R)-4-[4-(1H-Benzoimidazol-2-yl)-2-m-tolyl-thiazol-5-yl]-2-methyl-piperazin-1-yl}-2-imidazo[4,5-b]pyridin-3-yl-ethanone]
12 | 3360 nM | 198 nM | Cc1nc2ccccc2n1CC(=O)N1CCN(c2scnc2-c2nc3ccccc3[nH]2)CC1 [Example 2, 1-{4-[4-(1H-Benzoimidazol-2-yl)-thiazol-5-yl]-piperazin-1-yl}-2-(2-methyl-benzoimidazol-1-yl)-ethanone]
13 | 271 nM | 2 nM | C[C@@H]1CN(c2sc(C(F)(F)F)nc2-c2nc3ccccc3[nH]2)CCN1C(=O)Cn1cc2c(n1)CCN(C)C2 [Example 215, 1-{(R)-4-[4-(1H-Benzoimidazol-2-yl)-2-trifluoromethyl-thiazol-5-yl]-2-methyl-piperazin-1-yl}-2-(5-methyl-4,5,6,7-tetrahydro-pyrazolo[4,3-c]pyridin-2-yl)-ethanone]
14 | 181 nM | 0.2 nM | C[C@@H]1CN(c2scnc2-c2nc3ccc(Cl)cc3[nH]2)CCN1C(=O)Cn1ccc2cccnc21 [Example 23, 1-{(R)-4-[4-(6-Chloro-1H-benzoimidazol-2-yl)-thiazol-5-yl]-2-methyl-piperazin-1-yl}-2-pyrrolo[2,3-b]pyridin-1-yl-ethanone]
15 | 90 nM | 2 nM | C[C@@H]1CN(c2sc(C(F)(F)F)nc2-c2nc3ccccc3[nH]2)CCN1C(=O)Cn1ncc2c1CCN(C)C2 [Example 216, 1-{(R)-4-[4-(1H-Benzoimidazol-2-yl)-2-trifluoromethyl-thiazol-5-yl]-2-methyl-piperazin-1-yl}-2-(5-methyl-4,5,6,7-tetrahydro-pyrazolo[4,3-c]pyridin-1-yl)-ethanone]
16 | 2420 nM | 14 nM | O=C(Cn1ccc2cccnc21)N1CCN(c2scnc2-c2nc3ccccc3[nH]2)CC1 [Example 15, 1-{4-[4-(1H-Benzoimidazol-2-yl)-thiazol-5-yl]-piperazin-1-yl}-2-pyrrolo[2,3-b]pyridin-1-yl-ethanone]
17 | 3120 nM | 11 nM | O=C(CN1C(=O)COc2ccccc21)N1CCN(c2scnc2-c2nc3ccccc3[nH]2)CC1 [Example 78, 4-(2-{4-[4-(1H-Benzoimidazol-2-yl)-thiazol-5-yl]-piperazin-1-yl}-2-oxo-ethyl)-4H-benzo[1,4]oxazin-3-one]
18 | 1100 nM | 6 nM | C[C@@H]1CN(c2scnc2-c2nc3ccccc3[nH]2)CCN1C(=O)Cn1c(=O)oc2cccnc21 [Example 155, 3-(2-{(R)-4-[4-(1H-Benzoimidazol-2-yl)-thiazol-5-yl]-2-methyl-piperazin-1-yl}-2-oxo-ethyl)-3H-oxazolo[4,5-b]pyridin-2-one]

Row | Compound | IC50 (CXCR3) | IC50 (human CXCR3A)
19 | Cc1nn(CC(=O)N2CCN(c3sc(C(F)(F)F)nc3-c3nc4ccccc4[nH]3)C[C@H]2C)cc1CN(C)C [Example 211, 1-{(R)-4-[4-(1H-Benzoimidazol-2-yl)-2-trifluoromethyl-thiazol-5-yl]-2-methyl-piperazin-1-yl}-2-(4-dimethylaminomethyl-3-methyl-pyrazol-1-yl)-ethanone] | 227 nM | 1 nM
20 | C[C@@H]1CN(c2sc(C(F)(F)F)nc2-c2nc3ccccc3[nH]2)CCN1C(=O)Cc1cccc2cccnc12 [Example 190, 1-{(R)-4-[4-(1H-Benzoimidazol-2-yl)-2-trifluoromethyl-thiazol-5-yl]-2-methyl-piperazin-1-yl}-2-quinolin-8-yl-ethanone] | 514 nM | 1 nM

— patent US9266876B2 (Actelion Pharmaceuticals Ltd., priority 2012, dated 2016)
